Like-named read-outs stand apart in the source and are kept apart here.
How the values were obtained:
[1] = tested on: human sperm; test: Sperm motility of fresh human semen mixed with different concentrations of niclosamide (FIG. 1); type: cell-based
Method: FIG. 1 is a graph depicting the dose dependent effect of niclosamide dissolved in DMSO, on sperm motility. Fresh human semen samples were mixed with the different concentrations of niclosamide in vitro, followed by analysis of sperm motility within 2 minutes. The x-axis depicts the different concentrations of niclosamide mixed with the semen sample. The x-axis, from Left to Right: the gray bar depicts an untreated semen sample, the blue bar depicts a vehicle control, and the eight pink bars depict the increasing concentrations of niclosamide tested. […]
Sperm motility is a functional measurement of the sperm themselves. Sperm may be sampled either directly from semen or from washed sperm samples, and assessed for motility either manually or by CASA (Computer Assisted Sperm Analysis) (Chapter 59—Male Reproductive System. Systems Toxicologic Pathology. Dianne M. Creasy, Robert E. Chapin, in Haschek and Rousseaux's Handbook of Toxicologic Pathology (Third Edition), 2013; Amann R P et al. Computer-assisted sperm analysis (CASA): capabilities and potential developments. Theriogenology. 2014 Jan. 1; 81(1):5-17). Sperm motility (expressed as %) may be evaluated in duplicate within 1 h of semen collection, by counting moving and nonmoving sperm in several microscopic fields. […] Slow-moving sperm (class B+C) can be easily and accurately counted compared with rapidly moving (class A) sperm. […]

[2] = tested on: fresh human semen; test: Spermicidal effect on mixing with fresh human semen (effective ranges); type: cell-based
Method: With niclosamide dissolved in DMSO, a spermicidal effect at ≥10 mM was observed. With niclosamide in formulation, a spermicidal effect at a final concentration between 5 mM and 7.5 mM or higher, was observed. The effective range for niclosamide was determined to be from 5-150 mM. Ranges of: A spermicidal effect at ≥50% (v/v/) was observed when mixing polyethylene glycol-400 (PEG-400) with fresh human semen. The effective range for PEG-400 was determined to be from 50-65%.

[3] = Saturation solubility in buffers (shake flask); type: physicochemical; details: 37° C., 24 hours
Method: Solubility was established using 100 mL of each of the chosen buffers, and was conducted using shake flask method. […] Further, the solution was agitated at 37° C. for 24 hours and checked physically for un-dissolved mass. This saturated solution was centrifuged and injected an aliquot in to the chromatograph.

[4] = Solubility in solvents/co-solvents; type: physicochemical
Method: Solubility of the drug was determined in selected solvent/co-solvents. About 10 g of the solvent was taken and small amount of drug was added in increments till 500 mg. […] These solutions were further diluted quantitatively to about test concentration and analyzed using chromatograph.

[5] = Saturation solubility in various solvents (PEG grades); type: physicochemical
Description: Saturation solubility of niclosamide was studied in the solvents, to know the highest concentration of niclosamide that can be solubilized, as depicted in table 6. [table]

[6] = tested on: New Zealand white rabbits; test: Vaginal irritation study, 7-day intravaginal instillation; type: in vivo
Method: Described herein is a study to assess and evaluate vaginal irritation effect of Niclosamide. A total of 9 female New Zealand white rabbits were used for the study described herein. The animals were divided into three groups of three animals in each group: Group 1 (G1) animals treated instilled/treated vehicle control; Group 2 (G2) animals instilled/treated with 2.5 mM dose of niclosamide; and Group 3 (G3) animals instilled/treated with 100 mM dose of niclosamide, as shown in Table 21.
Formulations preparation used for the study were as follows. Vehicle Preparation: 0.85% sodium chloride, 0.1% sorbic acid, 10% lactic acid and 75% water was taken in mortar and pestle and triturated, pH was adjusted to approximately 4.5 using 10 N sodium hydroxide. […] Remaining volume was adjusted with water. Total quantity was triturated again and formulation pH was confirmed with pH paper. […] Total quantity was triturated again and formulation pH was confirmed with pH paper.
Instillation of the treatment was done using prefilled FG-08 tube attached to 1 mL disposable syringe at a dose volume of 1.0 mL per animal continuously for 7 days (from day 1 to 7). Irritation potential was scored in all animals using draize scale daily before Niclosamide instillation and approximately 30 minutes after Niclosamide instillation daily from day 1 to 7 and 24 hours after last test item instillation (day 8). […]

[7] = cited from earlier work
[8] = anhydrous form; cited from earlier work
[9] = Neutral Hydrolysis (3 mL H2O at 100° C. for 8 hours)

**Q.** For O=C(Nc1ccc([N+](=O)[O-])cc1Cl)c1cc(Cl)ccc1O [niclosamide], which “Minimum dose to see effect (inhibits sperm motility), concentration” value ([1]; concentration in formulation) is on record?
**A.** 4 mM

**Q.** What about the “effective niclosamide concentration that causes 100% decrease in number of motile sperm cells” value ([1]; fresh semen, 2 minutes, vs control sample) of the same molecule?
**A.** ≥ 10 mM

**Q.** What about the “concentration with spermicidal effect” value ([2]; niclosamide dissolved in DMSO) of the same molecule?
**A.** ≥ 10 mM

**Q.** And the “effective range for niclosamide” value ([2]; spermicidal effect)?
**A.** 5 to 150 mM

**Q.** And the Solubility ([3]; pH 1.2 (0.1N HCl))?
**A.** insoluble and Nil

**Q.** And the Solubility ([3]; pH 2.0 (0.01N HCl))?
**A.** insoluble and Nil

**Q.** What about the Solubility ([3]; pH 3.0 acid phthalate buffer) of the same molecule?
**A.** insoluble and Nil

**Q.** And the Solubility ([3]; pH 4.0 acid phthalate buffer)?
**A.** insoluble and Nil

**Q.** And the Solubility ([3]; pH 4.5 acetate buffer)?
**A.** insoluble and Nil

**Q.** And the Solubility ([3]; pH 5.1 acetate buffer)?
**A.** insoluble and Nil

**Q.** And the Solubility ([4]; polyethylene glycol (PEG 400))?
**A.** 47.4 mg/g

**Q.** What about the Solubility ([4]; polyethylene glycol (PEG 1000)) of the same molecule?
**A.** 46.6 mg/g

**Q.** What about the Solubility ([4]; polyethylene glycol (PEG 2000)) of the same molecule?
**A.** 45.6 mg/g

**Q.** What about the “amount of API solubilised completely” value ([5]; 10 g of PEG-400, stirring and heating at 50° C. for 40 min) of the same molecule?
**A.** 700 mg was

**Q.** What about the “amount of API solubilised completely” value ([5]; 10 g of PEG-1000, stirring and heating at 50° C. for 40 min) of the same molecule?
**A.** 500 mg was

**Q.** And the “amount of API solubilised completely” value ([5]; 10 g of PEG-2000, stirring and heating at 50° C. for 40 min)?
**A.** 500 mg was

**Q.** And the maximum solubility ([5]; in PEG-1000, heating and stirring)?
**A.** 5 % w/w

**Q.** And the maximum solubility ([5]; in PEG-2000, heating and stirring)?
**A.** 5 % w/w

**Q.** What about the “Clinical Signs and Mortality” value ([6]; 2.5 and 100 mM, 1.0 mL per animal intravaginally for 7 days, female rabbits) of the same molecule?
**A.** No treatment related mortality and adverse clinical signs

**Q.** And the “Gross Pathology of vagina” value ([6]; rabbit, in vivo)?
**A.** reddened at central lower half to caudal area mildly in all animals belonging to all groups

**Q.** What about the “% Degradation” value ([7]; Acid Hydrolysis (3 mL HCl at 100° C. for 8 hours)) of the same molecule?
**A.** No degradation

**Q.** And the potency after degradation ([7]; Alkaline Hydrolysis (0.1N NaOH at 100° C. for 2 hours))?
**A.** decreased to 97%

**Q.** And the “% Degradation” value ([7]; Alkaline Hydrolysis (0.1N NaOH at 100° C. for 2 hours), listed as drug substance)?
**A.** prone to alkaline hydrolysis

**Q.** What about the “% Degradation, Impurity 1” value [7, 9] of the same molecule?
**A.** Impurity 1-0.02%

**Q.** And the “% Degradation, Impurity 2” value [7, 9]?
**A.** Impurity 2-0.03%

**Q.** And the “% Degradation, Impurity 3” value ([7]; No stress Conditions)?
**A.** Impurity 3-0.04%

**Q.** What about the “% Degradation” value ([7]; Oxidative Hydrolysis (3 mL H2O2 at 100° C. for 8 hours)) of the same molecule?
**A.** No degradation

**Q.** What about the “% Degradation” value ([7]; Temperature Effect (100° C. for 8 hours)) of the same molecule?
**A.** No degradation

**Q.** What about the “% Degradation” value ([7]; UV Exposure for 7 days) of the same molecule?
**A.** No degradation

**Q.** What about the water solubility [8] of the same molecule?
**A.** about 13.32 μg/mL
